Where “and” joins values, the source holds several entries; their conditions need not be identical. Equal entries are not always repeated. Where two headings read alike, the source gives them in different places. Each block holds one molecule with its values, some of them ahead of it.
How the values were obtained:
[1] = target: Kv7.1 (Homo sapiens, UniProt P51787); test: G(V) shift of Kv7.1 expressed in Xenopus laevis oocytes, two-electrode voltage-clamp; format: cell-based
Description: (§1) cDNAs encoding human Kv7.1 (GEnBAnk Acc. No. NM_000218) and KCNE1 (NM_000219) were subcloned into the expression vectors pGEM or pXOOM, containing the 5′- and 3′-untranslated regions for Xenopus laevis β-globin as well as a poly-A segment (Jespersen et al., Biotechniques 32, 536-538, 540 (2002)). The truncated KCNE1 construct KCNE1ΔC was constructed by introducing a Stop codon at position 67 using Quikchange site-directed mutagenesis kit (Qiagen). The construct was fully sequenced to ensure proper mutation and absence of unwanted mutations (sequencing by Genewiz). The concatemers E1-Kv7.1-Kv7.1 and E1-Kv7.1 were provided by Dr. R. S. Kass at Columbia University, and can be prepared as described in Chan et al. Journal of General Physiology 132(2), 135-144, (2012)). The E1-Kv7.1 construct was made by linking the C-terminus of KCNE1 to the N-terminus of KCNQ1. The E1-Kv7.1-Kv7.1 construct was made by digesting the E1-Kv7.1 and a Kv7.1-Kv7.1 dimer with Xho1 and inserting the 2-kb fragment from the Kv7.1-Kv7.1 dimer digest into the cut KCNE1-Kv7.1 construct. The DNA encoding E1-Kv7.1-Kv7.1 and E1-Kv7.1 were in the pGEM vector and contained mutations to make the constructs suitable for voltage-clamp fluorometry recordings (Wang et al., J Biol Chem 273, 34069-34074 (1998)). The original KCNE1 and Kv7.1 sequences were therefore removed, one at a time, from the pGEM vector using different restriction enzymes (New England Biolabs). Sequences were separated using gel electrophoresis and harvested using Qiagen gel extraction kit. Corresponding wild type sequences were ligated into the construct using T4 Ligase (New England Biolabs). To ensure correct sequence the constructs were sequenced (Genewiz) and tested with different restriction enzymes in combination with gel electrophoresis to measure length and conformation of the gene. cRNA for injection of all constructs was prepared from linearized DNA using the T7 mMessage mMachine transcription kit (Ambion) according to the manufactures instructions. RNA quality was checked by gel electrophoresis, and RNA concentrations were quantified by UV spectroscopy.
(§2) Xenopus laevis oocytes were isolated and maintained (Bentzen, B. H. et al. Neuropharmacology 51, 1068-1077 (2006)). Approximately 50 nl cRNA (50 ng Kv7.1, KCNE1-Kv7.1-Kv7.1 or KCNE1-Kv7.1 alternatively 25 ng Kv7.1 together with 8 ng KCNE1 or KCNE1ΔC) was injected into each oocyte using a Nanojet microinjector (Drummond). Electrophysiological experiments were made 2-5 days after injection. Currents were measured at room temperature with the two-electrode voltage-clamp technique (CA-1B Dagan amplifier). Currents were sampled at 1-3.3 kHz, filtered at 500 Hz, and not leakage corrected. […] A control solution containing (in mM): 88 NaCl, 1 KCl, 15 HEPES, 0.4 CaCl2, and 0.8 MgCl2 was used. NaOH was added to adjust pH to 7.4, yielding a final sodium concentration of about 100 mM. The holding voltage was generally set to −80 mV. Activation curves were generally elicited by stepping to test voltages between −110 and +60 mV (2-4 s durations and 10 mV increments) followed by a tail voltage of −30 mV. For recordings of Kv7.1 at pH 9 and pH 10, the holding voltage was set to more negative voltages because the largest DHA-induced shifts induced channel opening already at −80 mV. […] Therefore, in arachidonyl amine experiments a brief hyperpolarizing pulse of 50 ms to −120 mV was introduced between the test voltage and the tail voltage to relief the channels from inactivation.
(§3) Test compounds were dissolved in 99.5% ethanol to a concentration of 100 mM and stored at −20° C. (Börjesson et al., Biophys J 95, 2242-2253 (2008); Börjesson et al., Biophys J 98, 396-403 (2010)). Shortly before experiments, test compounds were diluted in control solution to the desired test concentration. Pure control solution was added to the bath using a gravity-driven perfusion system. […]

[2] = target: T1, Kv7.1/KCNE1 (Homo sapiens, UniProt P51787); test: G(V) shift of Kv7.1 co-expressed with KCNE1 in Xenopus oocytes, two-electrode voltage-clamp; format: cell-based; conditions: for ΔV1/2 ± SEM (G(V) shift): Kv7.1/E1; for pKa: human, Xenopus oocytes co-expressing human Kv7.1 and KCNE1, read-out: apparent pKa (pH of c0.5)
T1 construct: expressed in transfected cells; host or cells: Xenopus laevis oocytes (cRNA co-injection)
Description: as §1, §2, §3

[3] = target: KCNE1-Kv7.1 (Homo sapiens, UniProt P15382+P51787); test: G(V) shift of KCNE1-Kv7.1 concatemer (4:4 stoichiometry) in Xenopus oocytes; format: cell-based; conditions: 70 μM; for ΔV1/2 ± SEM (G(V) shift): E1-Kv7.1
Description: (§4) As used herein, the terms “KCNE1-Kv7.1” and “KCNE1-Kv7.1-Kv7.1” refer to concatemers of Kv7.1 and KCNE1 in 4:4 and 4:2 stoichiometry, respectively.
as §1, with “The original KCNE1 and Kv7.1 sequences were therefore removed, one at a time, from the pGEM vector using different restriction enzymes (New England Biolabs). Sequences were separated using gel electrophoresis and harvested using Qiagen gel extraction kit. Corresponding wild type sequences were ligated into the construct using T4 Ligase (New England Biolabs). To ensure correct sequence the constructs were sequenced (Genewiz) and tested with different restriction enzymes in combination with gel electrophoresis to measure length and conformation of the gene. cRNA for injection of all constructs was prepared from linearized DNA using the T7 mMessage mMachine transcription kit (Ambion) according to the manufactures instructions.” left out
(§5) Xenopus laevis oocytes were isolated and maintained (Bentzen, B. H. et al. Neuropharmacology 51, 1068-1077 (2006)). […] Currents were measured at room temperature with the two-electrode voltage-clamp technique (CA-1B Dagan amplifier). […]
(§6) Xenopus laevis oocyte data were acquired using either Pulse software (HEKA) or Clampex 10.2 (Axon Instruments), and analyzed with Clampfit 10 (Axon Instruments) and GraphPad Prism 4 (GraphPad Software). […]

[4] = target: KCNE1-Kv7.1-Kv7.1 (Homo sapiens, UniProt P15382+P51787); test: G(V) shift of KCNE1-Kv7.1-Kv7.1 concatemer (4:2 stoichiometry) in Xenopus oocytes; format: cell-based; conditions: 70 μM; for ΔV1/2 ± SEM (G(V) shift): E1-Kv7.1-Kv7.1
Description: as §4
as §1, with “The original KCNE1 and Kv7.1 sequences were therefore removed, one at a time, from the pGEM vector using different restriction enzymes (New England Biolabs). Sequences were separated using gel electrophoresis and harvested using Qiagen gel extraction kit. Corresponding wild type sequences were ligated into the construct using T4 Ligase (New England Biolabs). To ensure correct sequence the constructs were sequenced (Genewiz) and tested with different restriction enzymes in combination with gel electrophoresis to measure length and conformation of the gene. cRNA for injection of all constructs was prepared from linearized DNA using the T7 mMessage mMachine transcription kit (Ambion) according to the manufactures instructions.” left out
as §5, §6

[5] = tested on: intact guinea pig hearts; test: Restoration of QT interval in intact hearts with E4031-induced Long QT; conditions: E4031
Description: Long QT syndrome was induced in intact guinea pig hearts by administration of the drug E4031, a HERG channel blocker.

[6] = in vitro; conditions: human, Caco-2
[7] = tested on: Caco-2 cells

SMILES: CCCCC/C=C\C/C=C\C/C=C\C/C=C\CCCCN [AA+, arachidonyl amine]
- Kv7.1 channel inactivation ([1]; Kv7.1): induced Kv7.1 channel inactivation
- ΔV1/2 ± SEM (G(V) shift) ([1]; Kv7.1, 70 μM, pH 7.4): +9.7 ± 2.1 mV
- ΔV1/2 ± SEM (G(V) shift) ([1]; Kv7.1, 70 μM, pH 7.4, listed as Arachidonyl amine): +9.7±2.1 mV
- ΔV1/2 ± SEM (G(V) shift) ([1]; Kv7.1, 70 μM, pH 7.4, listed as arachidonyl amine): +9.7±2.1 mV
- ΔV1/2 ± SEM (G(V) shift) ([2]; 70 μM, pH 7.4): +22.6 ± 1.9 mV
- ΔV1/2 ± SEM (G(V) shift) ([2]; 70 μM, pH 7.4, listed as arachidonyl amine): +22.6±1.9 mV
- G(V) shift of a representative cell (control curve shifted) ([2]; Kv7.1/KCNE1, 70 μM, pH 7.4): +28 mV
- G(V) shift ([2]; Kv7.1/KCNE1, pH 7): about +25 mV

SMILES: CC/C=C\C/C=C\C/C=C\C/C=C\C/C=C\C/C=C\CCC(=O)O [DHA, 4,7,10,13,16,19-all-cis-docosahexaenoic acid]
- maximal conductance ([1]; Kv7.1): without affecting maximal conductance
- G(V) shift ([1]; Kv7.1, 7 μM): −3.0±0.5 mV
- G(V) shift predicted from the concentration-response curve ([1]; Kv7.1, 35 μM DHA alone): −6.5 mV
- c0.5 (pH-dependence of the G(V) shift) ([1]; Kv7.1, 70 μM): 1.8*10^−8
- ΔVmax (pH-dependence of the G(V) shift) ([1]; Kv7.1, 70 μM): −30.7 mV
- G(V) shift ([1]; Kv7.1, 70 μM, pH 10): about −30 mV
- G(V) shift ([1]; Kv7.1, external pH 6.5): abolishes the DHA effect
- estimated maximum shift ΔVmax (concentration dependence) ([1]; Kv7.1, pH 7.4): −15.8±2.3 mV and −15.8 mV
- EC50 ([1]; Kv7.1, pH 7.4, read-out: c0.5, concentration causing 50% of the maximum shift): 50 ± 20 µM
- ΔVmax (concentration-response) ([1]; Kv7.1, pH 9.0): −27.7 mV
- EC50 ([1]; Kv7.1, pH 9.0, read-out: C0.5 (concentration-response)): 10 µM
- pKa ([1]; human, Xenopus laevis oocytes expressing human Kv7.1, Kv7.1, 70 μM, read-out: apparent pKa as reported by the shift of the G(V) relation): ~7.7
- c0.5 (pH-dependence of the G(V) shift) ([2]; Kv7.1/KCNE1, 70 μM): 3.3*10^−9
- ΔVmax (pH-dependence of the G(V) shift) ([2]; Kv7.1/KCNE1, 70 μM): −26.6 mV
- G(V) shift of a representative cell (control curve shifted) ([2]; Kv7.1/KCNE1, 70 μM, pH 9): −35 mV
- pKa ([2]; Kv7.1/KCNE1, 70 μM): 8.5
- G(V) shift of a representative cell (control curve shifted) ([3]; KCNE1-Kv7.1): +5.5 mV
- G(V) shift of a representative cell (control curve shifted) ([4]; KCNE1-Kv7.1-Kv7.1): +7 mV

SMILES: CC/C=C\C/C=C\C/C=C\C/C=C\C/C=C\C/C=C\CCC(=O)NCC(=O)O [DHA-Gly, docosahexaenoyl glycine]
- apparent pKa lower than that of DHA ([2]; Kv7.1/KCNE1): about 1.5 pH unit
- pKa ([2]; Kv7.1/KCNE1, 70 μM): 6.9
- concentration able to restore the QT intervals [5]: 10 µM
- efflux ratio [6]: 3.6

SMILES: CCCCCCCC/C=C\CCCCCCCC(=O)O [OA, oleic acid]
- ΔV1/2 ± SEM (G(V) shift) ([1]; Kv7.1, 70 μM, pH 7.4): −1.0±0.5 mV
- ΔV1/2 ± SEM (G(V) shift) ([1]; Kv7.1, 70 μM, pH 7.4, listed as Oleic acid): no effect

Continued, values first:

- ΔV1/2 ± SEM (G(V) shift) ([1]; Kv7.1, 70 μM, pH 7.4): +2.8 ± 2.5 mV
- ΔV1/2 ± SEM (G(V) shift) ([1]; Kv7.1, 70 μM, pH 7.4, listed as DHA methyl ester): no effect
- ΔV1/2 ± SEM (G(V) shift) ([1]; Kv7.1, 70 μM, pH 7.4, listed as DHA-Me): +2.8±2.5 mV
- ΔV1/2 ± SEM (G(V) shift) ([3]; pH 7.4): +5.0 ± 1.3 mV
- ΔV1/2 ± SEM (G(V) shift) ([3]; pH 9.0): +3.6 ± 2.6 mV
- ΔV1/2 ± SEM (G(V) shift) ([4]; pH 7.4): +5.7 ± 0.9 mV
- ΔV1/2 ± SEM (G(V) shift) ([4]; pH 9.0): +8.2 ± 2.7 mV
SMILES: CC/C=C\C/C=C\C/C=C\C/C=C\C/C=C\C/C=C\CCC(=O)OC [DHA-me, 4,7,10,13,16,19-all-cis-docosahexaenoic acid methyl ester]

- Kv7.1 affinity ([1]; compared among NAA, Lin-Gly, Ste-Gly, DHA-Gly, TTA, HTA): lowest affinity
SMILES: CCCCC/C=C\C/C=C\CCCCCCCC(=O)NCC(=O)O [Lin-Gly, linoleoyl-glycine]

- permeability coefficient (Papp) [7]: 20×10^−6 cms^−1
SMILES: CC(C)NCC(O)COc1cccc2ccccc12 (centres unmarked) [propranolol, reference compound]
